Drawing on PubChem BioAssay (NCI), this text covers TGI for 12 compounds.

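Compound exposure: 48 hours, 5 concentrations, 96-well plates. At the TGI there is no net growth.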

Among the test systems are HCT-15 colon; HOP-62 NSCLC; K-562 leukemia; IGROV1 ovarian; TK-10 renal; SF-539 CNS; EKVX NSCLC; 786-0 renal; ACHN renal; SF-268 CNS; HL-60(TB) leukemia; NCI/ADR-RES ovarian.
Assay in all cases: NCI-60 cell line screen, 48 h

Consider `COc1ccc(C[C@@H]2CN(C(=O)c3ccccc3)[C@H](Cc3ccc(O)cc3)CN2C(=O)c2ccccc2)cc1Br`, for which the TGI in the experiment on HCT-15 colon, in the experiment on HOP-62 NSCLC, in the experiment on K-562 leukemia, in the experiment on IGROV1 ovarian, with TK-10 renal and with SF-539 CNS was more than 100 µM each time. Further, the TGI with EKVX NSCLC, in the experiment with 786-0 renal, in the experiment on ACHN renal, in the experiment on SF-268 CNS, with HL-60(TB) leukemia and in the experiment with NCI/ADR-RES ovarian was more than 100 µM each time.

Turning to `CC1C(c2ccc(N(C)C)cc2)c2cc3c(cc2OC1N1CCCC1)OCO3` (stereo not drawn), the TGI is more than 100 µM in the experiment with HCT-15 colon; more than 78.6 µM in the experiment on HOP-62 NSCLC; 97.3 µM in the experiment on K-562 leukemia; more than 100 µM with IGROV1 ovarian; more than 100 µM in the experiment with TK-10 renal; 60.2 µM in the experiment with SF-539 CNS. Besides, the TGI in the experiment on EKVX NSCLC is more than 100 µM; in the experiment with 786-0 renal, more than 100 µM; in the experiment with ACHN renal it was more than 100 µM; with SF-268 CNS, more than 100 µM; in the experiment with HL-60(TB) leukemia, 73.6 µM; in the experiment on NCI/ADR-RES ovarian, more than 94.1 µM.

For `N#CI1OC(=O)c2ccccc21`, the TGI in the experiment with HCT-15 colon, in the experiment with HOP-62 NSCLC, in the experiment with K-562 leukemia, in the experiment with IGROV1 ovarian, with TK-10 renal and with SF-539 CNS was more than 100 µM throughout. The TGI in the experiment with EKVX NSCLC, in the experiment on 786-0 renal, with ACHN renal, with SF-268 CNS, with HL-60(TB) leukemia and with NCI/ADR-RES ovarian was more than 100 µM each time.

For `O=c1c2cc([N+](=O)[O-])ccc2n2n1Cc1ccccc1CC2`, the TGI in the experiment on HCT-15 colon, in the experiment with HOP-62 NSCLC, in the experiment on K-562 leukemia, with IGROV1 ovarian, in the experiment on TK-10 renal and with SF-539 CNS was more than 100 µM in each case. Further, the TGI with EKVX NSCLC was 52.5 µM; in the experiment with 786-0 renal it was more than 100 µM; in the experiment with ACHN renal, more than 100 µM; in the experiment with SF-268 CNS it was more than 100 µM; in the experiment with HL-60(TB) leukemia, more than 100 µM; with NCI/ADR-RES ovarian, more than 100 µM.

Turning to `Fc1cccc(F)c1C1SCC2=Nc3ccccc3CN21` (stereo not drawn), the TGI with HCT-15 colon is more than 100 µM; with HOP-62 NSCLC, 84.4 µM; in the experiment with K-562 leukemia, more than 100 µM; in the experiment on IGROV1 ovarian it was more than 100 µM; in the experiment on TK-10 renal it was more than 100 µM; in the experiment on SF-539 CNS, 92.7 µM. The TGI with EKVX NSCLC was more than 100 µM; in the experiment on 786-0 renal, more than 100 µM; in the experiment on ACHN renal, more than 100 µM; in the experiment on HL-60(TB) leukemia, more than 100 µM; in the experiment on NCI/ADR-RES ovarian, 79.5 µM.

Consider `COc1cc2c(cc1OC)C(=O)N(c1ccc(O)cc1)C2`, for which the TGI in the experiment with HCT-15 colon, in the experiment on HOP-62 NSCLC, with K-562 leukemia, in the experiment with IGROV1 ovarian, with TK-10 renal and with SF-539 CNS was more than 100 µM each time. Also, the TGI in the experiment with EKVX NSCLC, in the experiment with 786-0 renal, with ACHN renal, in the experiment with SF-268 CNS, in the experiment on HL-60(TB) leukemia and in the experiment on NCI/ADR-RES ovarian was more than 100 µM throughout.

In the case of `c1cc(-c2cscc2-c2ccsc2)cs1`, the TGI is more than 100 µM in the experiment on HCT-15 colon; more than 100 µM with HOP-62 NSCLC; more than 100 µM in the experiment with K-562 leukemia; more than 100 µM with IGROV1 ovarian; more than 100 µM with TK-10 renal; 59.5 µM in the experiment with SF-539 CNS. Besides, the TGI in the experiment on EKVX NSCLC, with 786-0 renal, with ACHN renal, in the experiment with SF-268 CNS, in the experiment on HL-60(TB) leukemia and with NCI/ADR-RES ovarian was more than 100 µM each time.

Regarding `C[N+]1(C)CC=C(N2CCOCC2)CC1`, the TGI in the experiment on HCT-15 colon, in the experiment with HOP-62 NSCLC, in the experiment on K-562 leukemia, with IGROV1 ovarian, in the experiment on TK-10 renal and in the experiment with SF-539 CNS was more than 10 µM throughout. In addition, the TGI in the experiment on EKVX NSCLC, in the experiment on 786-0 renal, in the experiment on ACHN renal, with SF-268 CNS, in the experiment on HL-60(TB) leukemia and in the experiment on NCI/ADR-RES ovarian was more than 10 µM each time.

`COC(=O)C1Cc2c(C)cccc2C1=O` (stereo not drawn): the TGI in the experiment on HCT-15 colon, in the experiment on HOP-62 NSCLC, in the experiment on K-562 leukemia, in the experiment on IGROV1 ovarian, in the experiment on TK-10 renal and in the experiment on SF-539 CNS was more than 100 µM each time. Besides, the TGI in the experiment with EKVX NSCLC is more than 100 µM; with 786-0 renal it was more than 100 µM; in the experiment with ACHN renal, more than 100 µM; in the experiment with SF-268 CNS, more than 100 µM; in the experiment with HL-60(TB) leukemia, 77.8 µM; with NCI/ADR-RES ovarian, more than 100 µM.

For the compound `COc1ccc(NC(=S)NN=C(C)c2cccc(C(C)=NNC(=S)Nc3ccc(OC)cc3)n2)cc1`, the TGI with HCT-15 colon, with HOP-62 NSCLC, with K-562 leukemia, in the experiment on IGROV1 ovarian, in the experiment on TK-10 renal and in the experiment with SF-539 CNS was more than 100 µM each time. Besides, the TGI in the experiment on EKVX NSCLC, in the experiment on 786-0 renal, in the experiment on ACHN renal, with SF-268 CNS, in the experiment with HL-60(TB) leukemia and in the experiment with NCI/ADR-RES ovarian was more than 100 µM each time.

On to `CCOC(=O)C1(Cc2ccc(C)cc2)Cc2ccc(C)cc2C1=O` (stereo not drawn), for which the TGI with HCT-15 colon is more than 100 µM; with HOP-62 NSCLC it was more than 100 µM; in the experiment on K-562 leukemia it was more than 41.4 µM; with IGROV1 ovarian it was more than 100 µM; in the experiment with TK-10 renal it was more than 100 µM; with SF-539 CNS it was 58.5 µM. The TGI is more than 100 µM with EKVX NSCLC; more than 100 µM in the experiment with 786-0 renal; more than 100 µM in the experiment on ACHN renal; more than 100 µM in the experiment on SF-268 CNS; 23.6 µM in the experiment with HL-60(TB) leukemia; 32.5 µM in the experiment with NCI/ADR-RES ovarian.

Regarding `COc1c2nc(CCl)n(C)c(=O)c2c(OC)c2c(=O)n(C)c(CCl)nc12`, the TGI is 2.86 µM in the experiment with HCT-15 colon; 5.7 µM in the experiment with HOP-62 NSCLC; 7.83 µM with K-562 leukemia; 4.56 µM in the experiment with IGROV1 ovarian; 1.76 µM with TK-10 renal; 13.1 µM in the experiment on SF-539 CNS. Also, the TGI in the experiment with EKVX NSCLC was 11.8 µM; in the experiment on 786-0 renal, 3.29 µM; in the experiment with ACHN renal it was 2.43 µM; in the experiment with SF-268 CNS, 4.52 µM; with HL-60(TB) leukemia, 2.47 µM; in the experiment on NCI/ADR-RES ovarian it was 6.88 µM.
